Patent EP0654042B1, “AMYLIN MUTEINS” (PFIZER INC., priority 1992, dated 1998)
Bridge positions count the residues as written; N and C are the ends. Ends that are not written are not given here.

Tests used:
[1] = test system: muscle or muscle cells; experiment: suppression of insulin action (insulin action suppressing activity); conditions: qualitative statement; no data or test conditions printed
Source text: The phrase "insulin action suppressing activity", as used throughout this Specification and the appendant claims, includes, but is not limited to, the ability of a polypeptide of this invention to suppress the effect which insulin has upon muscle or muscle cells. By way of example and not of limitation, the polypeptides of this invention suppress insulin-stimulated glycogen synthesis in muscle or muscle cells.

[2] = test system: isolated soleus muscle; conditions: Leighton et al. 1988, Cooper et al. 1988; cited from earlier work

| Substance | suppress insulin action [1] | insulin-stimulated glycogen synthesis [2] |
| --- | --- | --- |
| Bolton-Hunter derivative of amylin: Bolton-Hunter derivative of amylin of the drawn formula wherein W is SEQUENCE ID NO:1 (KCNTATCATQRLANFLVHSSNNFGAILSSTNVGSNTY; not fully specified (C-terminus, bridges); cysteine pairing not given here; also: Bolton-Hunter reagent derivative, attachment site not given here; UniProt P10997 34-70, looked up) | will not suppress insulin action |  |
| amylin: 37 amino acid polypeptide with a disulfide bond between Cys 2 and 7; secretory product of pancreatic β cells (KCNTATCATQRLANFLVHSSNNFGAILSSTNVGSNTY; disulfide 2-7; not fully specified (C-terminus); UniProt P10997 34-70, looked up) |  | suppresses insulin-stimulated glycogen synthesis |
